Data taken from US20230001007A1, “Glycan-Interacting Compounds and Methods of Use” (Seagen Inc., priority 2017, published 2023).

Legend:
[1] = tested on: OVCAR3 human ovarian cancer cells; experiment: OVCAR3 cell line-derived subcutaneous xenograft; format: in vivo, Athymic Nude mouse; details: 20 mg/kg intraperitoneally once per week for three weeks
Procedure: An Athymic Nude mouse subcutaneous xenograft mouse model was generated with OVCAR3 human ovarian cancer cells. Animals were treated with humanized anti-STn ADCs (1 mg/kg, 2.5 mg/kg, 5 mg/kg), an isotype ADC (1 mg/kg, 5 mg/kg), Paclitaxel (20 mg/kg) or vehicle alone. ADCs were administrated intravenously once per week for four weeks. Paclitaxel was administrated intraperitoneally once per week for three weeks. […] At the end of the study, tumor tissues were collected and analyzed using immunohistochemistry for expression of STn.

[2] = tested on: Primary patient CRC samples; experiment: STn expression in primary patient CRC samples by flow cytometry; format: cell-based; details: % of viable CD45−/CD34− population
Description: Primary patient CRC samples were probed by flow cytometry with hSIA101 and two commercial antibodies B72.3 and CC49. All 10 samples tested were STn positive. In the table, % STn is expressed as % of viable CD45−/CD34− population. STn expression was often more robustly identified with hSIA101 than the commercial antibodies.

Molecule	Mean tumor volume ([1]; Day 1) [mm^3]	Mean tumor volume ([1]; Day 4) [mm^3]	Mean tumor volume ([1]; Day 9) [mm^3]	Mean tumor volume ([1]; Day 12) [mm^3]	Mean tumor volume ([1]; Day 15) [mm^3]	Mean tumor volume ([1]; Day 18) [mm^3]	Mean tumor volume ([1]; Day 23) [mm^3]	Mean tumor volume ([1]; Day 26) [mm^3]	Mean tumor volume ([1]; Day 30) [mm^3]	Mean tumor volume ([1]; Day 31) [mm^3]	% STn+ ([2]; Sample 160093-2, Colon) [%]	% STn+ ([2]; Sample 160101-2, Colon) [%]	% STn+ ([2]; Sample 160102-2, Colon) [%]	% STn+ ([2]; Sample 160104-2, Colon Met to Liver) [%]	% STn+ ([2]; Sample 160115-2, Colon) [%]	% STn+ ([2]; Sample 160127-2, Colon) [%]	% STn+ ([2]; Sample 160149-1, Colon) [%]	% STn+ ([2]; Sample 160151-1, Colon) [%]	% STn+ ([2]; Sample 169068-1, Colon) [%]	% STn+ ([2]; Sample 1601666, Colon) [%]
CC(=O)O[C@H]1C(=O)[C@@]2(C)[C@H]([C@H](OC(=O)c3ccccc3)[C@]3(O)C[C@H](OC(=O)[C@H](O)[C@@H](NC(=O)c4ccccc4)c4ccccc4)C(C)=C1C3(C)C)[C@]1(OC(C)=O)CO[C@@H]1C[C@@H]2O [Paclitaxel]	161.2	210.0	370.0	482.3	620.4	767.4	971.6	1133.0	1277.8	1385.2										
B72.3: commercial anti-STn antibody (antibody, chains of the INN, looked up, V domains shown) VH: QVQLQQSDAELVKPGASVKISCKASGYTFTDHAIHWAKQKPEQGLEWIGYISPGNDDIKYNEKFKGKATLTADKSSSTAYMQLNSLTSEDSAVYFCKRSYYGHWGQGTTLTVSS VL: DIQMTQSPASLSVSVGETVTITCRASENIYSNLAWYQQKQGKSPQLLVYAATNLADGVPSRFSGSGSGTQYSLKINSLQSEDFGSYYCQHFWGTPYTFGGGTRLEIK											18.9	5.8	14.7	46.6	13	14.4	10.5	6.8	7.4	17.3
